This is an account of results in US10398682B2, “Methods and compositions to prevent or treat bacterial infections” (THE BOARD OF REGENTS OF THE UNIVERSITY OF TEXAS SYSTEM, priority 2013, dated 2019).

Converted amounts (≈) assume the structure as drawn.

Series [1] concerns Acinetobacter baumannii. Nature of the series: SIgA breakdown / secretory component liberation by Acinetobacter baumannii (Western blot). The format is cell-based. The settings on record: for SC liberation / SIgA reduction: 2 hours after incubation. The method, then:
Acinetobacter baumannii was incubated with 50 μg/mL SIgA to examine breakdown of the immunoglobulin. Breakdown of SIgA by A. baumannii was observed by liberation of secretory component from dimeric IgA. Goat anti-human secretory component (free and bound) antibody was used to monitor this occurrence though Western blot. A mixture of A. baumannii strain CI 79 was prepared in three concentrations—10^7, 10^6, and 10^5 CFU/mL—to determine whether SIgA breakdown was dose dependent with respect to bacterial concentration FIG. 1A. […] Next, two competitive inhibitors of reductase enzymes targeting the thioredoxin fold (-C-X-X-C-) motif typically found in thiol-reductase enzymes (thioredoxin, glutathione, thioredoxin reductase, etc) were identified. The first, dithionitrobenzoic acid (Ellman's reagent) is often used as a colorimetric substrate to monitor thioredoxin activity as it produces a bright yellow color upon cleavage of the disulfide bond within the molecule. The second is PX-12. […] Although not shown here, inhibition was still evident at 24 hours with Ellman's reagent, PX-12 inhibition seemed to be overcome by the bacteria after about 12 hours. […] (Error bars represent±SEM in all graphs; statistical differences determined by ANOVA with Dunnett correction; *significance p<0.01; **p<0.001).
In general terms: Immunoblotting shows a protein as a band on a membrane.

For series [2] the following is noted: humans; 300 mg/m^2 dose level; cited from earlier work.
The test system of series [3] is A. baumannii strain CI 79. The experiment in a line: Bacterial adherence to mouse intestinal sections. It is filed as cell-based, Acinetobacter baumannii. On the procedure: Intestinal sections were cut down one side to expose the inner lumen of the intestine and individually placed in suspensions of A. baumannii strain CI 79 (10^7 CFU/mL). The sections were incubated in this mixture for 30 minutes, washed twice in 250 volumes of sterile PBS and soaked in 500 volumes of PBS (volume of section ˜50-100 μL) for five minutes. The remaining bound bacteria were enumerated through homogenization of each section into single cell suspensions in 10 mL sterile PBS followed by dilution plating.

The test system of series [4] is Acinetobacter baumannii. Nature of the series: Repeat MIC experiment performed to CLSI standards. It is filed as cell-based.
Series [5] deals with multi-drug resistant (MDR) Acinetobacter baumannii clinical isolates. The experiment in a line: Minimum inhibitory concentration (MIC) determination. It is filed as cell-based. On the procedure:
PX-12 concentrations used in these experiments approximated the concentration reported “well tolerated” by mice (˜500 μg/mouse; 500 μg/mL for this experiment). […] Furthermore, this concentration was also bactericidal leading us to believe it may potentially be useful as a new antimicrobial compound for treating MDR Acinetobacter baumannii. (Bacterial concentrations used in presented studies ˜100× higher than recommended by CLSI standards)

For series [6] the following is noted: mouse, in vivo; cited from earlier work.
[7] abbreviates: cation adjusted Mueller Hinton broth, ~5×10^5 CFU/mL, 64 to 0.5 μg/mL tested.

What is called MIC is the smallest concentration in the dilution series that meets the test's criterion for growth inhibition. A low value points to inhibition by little substance. `CCC(C)SSc1ncc[nH]1` (stereo not drawn) [PX-12, 1-methylpropyl 2-imidazolyl disulfide]: in series [1] (inhibitor 15 μg/mL), the SC liberation entry was “completely ablated” and the SIgA reduction result is on record as “completely ablated”. Moreover, the “time after which inhibition is overcome by the bacteria” value in series [1] (not shown) is recorded as “about 12 hours”. The “SIgA breakdown by Acinetobacter baumannii” value in series [1] (up to 2 hours following treatment with 18 μg/mL) is reported as “significantly reduced”. In series [2], the dose-limiting toxicities entry is “Grade 3 hypoxia and Grade 2 reversible bilateral pneumonitis”. Also, in series [3] (18 μg/mL, sections from WT C57BL/6 mice), the “bacterial adherence to intestinal sections” value is “significantly inhibits”. Further, the “reduction of bacterial attachment” value in series [3] (WT intestinal sections as 100% control, A. baumannii CI 79 10^7 CFU/mL, 30 minutes) is given as 40%. Further, in series [4] (setting [7]), the MBC entry is “low” and the MIC result is reported as “low”. Moreover, the “type of antimicrobial activity” value in series [4] (concluded from MIC and MBC) is listed as “bactericidal activity”. The “bactericidal effect at the MIC” value in series [5] (31.25 μg/mL) is recorded as “bactericidal”. Further, the bacterial pellet size entry in series [5] (500 μg/mL) is on record as “visible decrease”. The minimum inhibitory concentration (MIC) in series [5] (Acinetobacter baumannii, MDR clinical isolates, with one exception, bacterial concentrations ~100× higher than CLSI) turned out to be 31.2 µg/mL (≈ 166 µM). Moreover, in series [6], the “concentration reported well tolerated” value is given as roughly 500 μg/mouse.
On to `O=C(O)c1cc(SSc2ccc([N+](=O)[O-])c(C(=O)O)c2)ccc1[N+](=O)[O-]` [dithionitrobenzoic acid], for which, in series [1] (inhibitor 1 mM), the SC liberation result was “completely ablated” and the SIgA reduction result is “completely ablated”. For the same compound, the “inhibition of SIgA reduction at 24 hours” value in series [1] (24 hours, not shown) is reported as “still evident”. Further, the “SIgA breakdown by Acinetobacter baumannii” value in series [1] (after addition of the substrate, concentration not given) is “significantly reduced”.
